Results reported in US6537553B1, “Leukosialin: Ig fusion proteins” (La Jolla Cancer Research Foundation, priority 1993, dated 2003).
Each block holds one molecule with its values, some of them ahead of it.

What was measured:
[1] = tested on: activated mouse tEnd.1 cells (E-selectin mediated adhesion); test: Inhibition of adhesion of SM colonic carcinoma cells to IL-1β-activated mouse tEnd.1 endothelial cell monolayers; type: cell-based; conditions: for inhibition of adhesion of SM cells to activated mouse tEnd.1 cells: IL-1β-activated tEnd.1 monolayers, result in words (FIG. 4, 5A, 5B)
From the text: The mouse endothelioma cell lines, eEnd.2, sEnd.1, tEnd.1, and bEnd.4 were kindly provided by Dr. R. Lindsay Williams at the Ludwig Institute for Cancer Research, […], Austria. These cell lines, originally derived from a subcutaneous (sEnd.1), thymic (tEnd.1), embryonal (eEnd.2), and brain (bEnd.4) hemangliomas produced in transgenic mice expressing polyoma middle T antigen (Williams et al., Cell 52:121-131 (1988)). The cells were maintained in Dulbecco's modified Eagle's medium containing 10% fetal calf serum. Mouse endothelioma cell lines were cultured in 96-well tissue culture plates and activated with 10 units/ml IL-1β (Sigma) and then washed with Dulbecco's modified Eagle's medium containing 5% fetal calf serum before the colonic carcinoma cells were added. As the control, non-activated mouse endothelial cells were prepared identically and used in parallel for the adhesion assays. The adhesion and inhibition of the adhesion by soluble lamp-1 and soluble leukosialin were carried out exactly as described previously (Sawada et al., supra).
Inhibition by sialyl Le^x-positive glycolipid, NeuNAcα2→3Galβ1→4-(Fucα1→3)GlcNAcβ1→3Galβ1→4Glc→Cer was tested after the glycolipid was incorporated into liposomes (Phillips et al., Science 250:1130-1132 (1990)). Paragloboside, NeuNAcα2→3Galβ1→4GlcNAcβ1→3Galβ1→4Glc→Cer was used as a control glycolipid. Sialyl Le^x glycolipid (Kameyama et al., Carbohydr. Res. 209:C1-C4 (1991)) and paragloboside were kindly provided by Drs. Akira Hasegana, Gifu University, Japan, and Michiko Fukuda at this institute, respectively. In order to determine if sialyl Le^x structure on the human colonic cells are recognized by mouse endothelial cells, the adhesion was assayed after the colonic cells were preincubated with anti-sialyl Le^x antibody (CSLEX, IgM) or mouse anti-Le^x monoclonal antibody (anti-PMN-6, IgM). The anti-PMN-6 antibody (Ball and Fanger, Blood 61:456-463 (1983)) was kindly provided by Dr. Ball of the Dartmouth Medical School.
First, the binding of the cell line with the highest adhesion efficiency was tested in the presence of a sialyl Le^x containing glycolipid. SM cells were subjected to adhesion to activated mouse tEnd.1 cells as described in Example IV (and FIG. 3) (open bar), or as in FIG. 3 after pretreatment of the activated monolayers with liposomes containing sialyl Le^x glycolipid (hatched bars), or after pretreatment with liposomes containing the control glycolipid paragloboside (cross-hatched bar). The amount of glycolipid is shown in μg/ml at the x axis. The adhesion to non-activated mouse endothelial cells is shown by the closed bar. Data correspond to the fraction of applied cells still adherent to tEnd.1 cells after washing and are mean and standard deviation from four replicate assays.
The adhesion of SM cells to activated mouse tEnd.1 cells was tested for inhibition by soluble lamp-1 (FIG. 5A) or soluble leukosialin (FIG. 5B). The inhibition by soluble lamp-1 or soluble leukosialin derived from sialyl Le^x positive CHO cells is shown by hatched bars.
Inhibition by control soluble lamp-1 or control soluble leukosialin, which were derived from sialyl Le^x negative CHO cells, is shown by cross-hatched bars. The open bar represents the control without the inhibitors while the closed bar represents the adhesion to unstimulated mouse tEnd.1 monolayers. The experiments shown in FIGS. 5A and 5B were carried out at the same time.

[2] = molecular target: mouse E-selectin on IL-1β-activated mouse tEnd.1 endothelioma cells (mouse) (UniProt Q00690); test: cell-based or functional assay
Sequence of UniProt Q00690 (Q00690 22-612): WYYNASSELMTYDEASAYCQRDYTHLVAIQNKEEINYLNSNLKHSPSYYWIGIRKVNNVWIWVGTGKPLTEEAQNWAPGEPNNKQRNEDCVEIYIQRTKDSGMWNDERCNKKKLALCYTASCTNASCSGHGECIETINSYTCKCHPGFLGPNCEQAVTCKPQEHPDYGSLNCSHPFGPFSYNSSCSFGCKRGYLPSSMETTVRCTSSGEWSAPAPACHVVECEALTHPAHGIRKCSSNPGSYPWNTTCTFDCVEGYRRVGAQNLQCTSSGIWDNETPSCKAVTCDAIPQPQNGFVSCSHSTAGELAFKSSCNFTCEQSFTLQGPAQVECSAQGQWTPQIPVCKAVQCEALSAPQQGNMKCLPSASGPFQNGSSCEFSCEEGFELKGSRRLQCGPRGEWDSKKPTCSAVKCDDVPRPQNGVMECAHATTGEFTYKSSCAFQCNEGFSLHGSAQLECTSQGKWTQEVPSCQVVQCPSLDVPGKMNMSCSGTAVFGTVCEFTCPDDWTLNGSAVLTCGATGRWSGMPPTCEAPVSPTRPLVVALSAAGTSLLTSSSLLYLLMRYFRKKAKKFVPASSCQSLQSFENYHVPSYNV

[3] = tested on: HUVEC; conditions: as described in Sawada et al. (1993); cited from earlier work

Molecule: NeuNAcα2→3Galβ1→4-(Fucα1→3)GlcNAcβ1→3Galβ1→4Glc→Cer [sialyl Le^x glycolipid, reference compound]
- inhibition of adhesion of SM cells to activated mouse tEnd.1 cells ([1]; SM cells): inhibited by liposomes containing sialyl Le^x glycolipid in a dose-dependent manner
- inhibition of adhesion to mouse cells compared with human endothelial cells ([1]; same carcinoma cells, same conditions, mouse vs human endothelial cells): not as effective as the inhibition of the same carcinoma cells to human endothelial cells

Molecule: NeuNAcα2→3Galβ1→4GlcNAcβ1→3Galβ1→4Glc→Cer [sialyl paragloboside, reference compound]
- inhibition of adhesion of SM cells to activated mouse tEnd.1 cells ([1]; SM cells): did not inhibit the adhesion even at high concentrations

Molecule: sialyl-Le^x-negative leukosialin: soluble leukosialin IgG chimeric protein lacking the sialyl-Le^x determinant, from control CHO cells without Fuc-TIII vector [reference compound]
- inhibition of adhesion of SM cells to activated mouse tEnd.1 cells ([1]; SM cells): inhibited the binding minimally
- inhibition of adhesion of SM cells to activated mouse tEnd.1 cells ([1]; SM cells, listed as soluble sialyl Le^x negative leukosialin): inhibited binding only minimally

Molecule: sialyl-Le^x-positive leukosialin: soluble leukosialin fused to human IgG1 hinge plus constant region, from CHO cells expressing core 2 GlcNAc-transferase and Fuc-TIII; carries sialyl Le^x
- inhibition of adhesion of SM cells to activated mouse tEnd.1 cells ([1]; SM cells): inhibited the adhesion of SM cells to mouse tEnd.1 cells in a concentration-dependent manner
- inhibition of adhesion of SM cells to activated mouse tEnd.1 cells ([1]; SM cells, listed as sialyl Le^x positive leukosialin): inhibited the adhesion of SM cells to mouse tEnd.1 cells in a concentration dependent manner
- binding of SM cells to tEnd.1 cells, relative to control levels ([1]; SM cells, activated tEnd.1, concentration not stated in text (FIG. 5B)): 30 % of control levels

- adhesion of SM cells to mouse tEnd.1 cells, percent of control (% of control levels) [2]: 30
Molecule: soluble chimeric leukosialin-IgG protein, sialyl Le^x positive (from CHO-leu.C2GnT cells transfected with pSRα.s-leu.IgG and pcDNAI-Fuc.TIII) (from UniProt P16150 20-252; P01857 99-330) (Fc fusion)

B1: soluble lamp-1 containing the sialyl Le^x: soluble form of lysosomal membrane glycoprotein-1 from CHO cells co-transfected with Fuc-TIII vector; carries sialyl Le^x (protein)
chain: AMFMVKNGNGTACIMANFSAAFSVNYDTKSGPKNMTFDLPSDATVVLNRSSCGKENTSDPSLVIAFGRGHTLTLNFTRNATRYSVQLMSFVYNLSDTHLFPNASSKEIKTVESITDIRADIDKKYRCVSGTQVHMNNVTVTLHDATIQAYLSNSSFSRGETRCEQDRPSPTTAPPAPPSPSPSPVPKSPSVDKYNVSGTNGTCLLASMGLQLNLTYERKDNTTVTRLLNINPNKTSASGSCGAHLVTLELHSEGTTVLLFQFGMNASSSRFFLQGIQLNTILPDARDPAFKAANGSLRALQATVGNSYKCNAEEHVRVTKAFSVNIFKVWVQAFKVEGGQFGSVEECLLDENSM
- inhibition of adhesion of SM cells to activated mouse tEnd.1 cells ([1]; SM cells): able to inhibit the adhesion of SM cells to activated mouse tEnd.1 cells in a dose-dependent manner
- inhibition of binding of SP-pSRαlamp-1^H cells to HUVEC [3]: inhibited the binding of the SP-pSRαlamp-1^H to HUVEC
